According to the supplement of paper PMC10307832:

Assays:
Experiment in all cases: relative viability (nuclei count vs DMSO), 5 days (fraction); higher = more cells survive
HCC-15 = tested on: HCC-15
How it was run: (§1)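 Lung cancer cell lines were pin-tool dosed in 1536-well plates on the day after seeding, with either a lone drug or a fixed anchor-drug dose plus five library-drug doses (not always all listed) in √10 steps. Nuclei were counted on 4× images after 5 days. Relative viability is the ratio of treated-well to vehicle-well nuclei counts, with each value a median of duplicate plates.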

NCI-H1703 = tested on: NCI-H1703
How it was run: as §1

Calu-6 = tested on: Calu-6
How it was run: as §1

IA-LM = tested on: IA-LM
How it was run: as §1

LCLC-103H = tested on: LCLC-103H
How it was run: as §1

NCI-H1299 = tested on: NCI-H1299
How it was run: as §1

EBC-1 = tested on: EBC-1
How it was run: as §1

UMC-11 = tested on: UMC-11
How it was run: as §1

A549 = tested on: A549
How it was run: as §1

SMILES: C=C1C(=O)O[C@@H](CCCCCCCC)[C@@H]1C(=O)O [C-75] + CC(C)C[C@H](NC(=O)[C@H](Cc1ccccc1)NC(=O)c1cnccn1)B(O)O [Bortezomib] (partner 0.002 µM)
- relative viability (HCC-15; first compound 0.08 µM): 1.04
- relative viability (HCC-15; first compound 0.253 µM): 1.05
- relative viability (HCC-15; first compound 0.8 µM): 0.944
- relative viability (HCC-15; first compound 2.53 µM): 0.943
- relative viability (HCC-15; first compound 8 µM): 1.01
- relative viability (NCI-H1703; first compound 0.08 µM): 0.506
- relative viability (NCI-H1703; first compound 0.253 µM): 0.435
- relative viability (NCI-H1703; first compound 0.8 µM): 0.31
- relative viability (NCI-H1703; first compound 2.53 µM): 0.292
- relative viability (NCI-H1703; first compound 8 µM): 0.192
- relative viability (Calu-6; first compound 0.08 µM): 1.01
- relative viability (Calu-6; first compound 0.253 µM): 1.16
- relative viability (Calu-6; first compound 0.8 µM): 1.02
- relative viability (Calu-6; first compound 2.53 µM): 0.92
- relative viability (Calu-6; first compound 8 µM): 0.855
- relative viability (IA-LM; first compound 0.08 µM): 0.79
- relative viability (IA-LM; first compound 0.253 µM): 0.61
- relative viability (IA-LM; first compound 0.8 µM): 0.728
- relative viability (IA-LM; first compound 2.53 µM): 0.736
- relative viability (IA-LM; first compound 8 µM): 0.428
- relative viability (LCLC-103H; first compound 0.08 µM): 1.23
- relative viability (LCLC-103H; first compound 0.253 µM): 0.907
- relative viability (LCLC-103H; first compound 0.8 µM): 1.06
- relative viability (LCLC-103H; first compound 2.53 µM): 0.811
- relative viability (LCLC-103H; first compound 8 µM): 1.18
- relative viability (NCI-H1299; first compound 0.08 µM): 1.07
- relative viability (NCI-H1299; first compound 0.253 µM): 0.932
- relative viability (NCI-H1299; first compound 0.8 µM): 1.01
- relative viability (NCI-H1299; first compound 2.53 µM): 1.02
- relative viability (NCI-H1299; first compound 8 µM): 1.07
- relative viability (EBC-1; first compound 0.08 µM): 0.57
- relative viability (EBC-1; first compound 0.253 µM): 0.512
- relative viability (EBC-1; first compound 0.8 µM): 0.498
- relative viability (EBC-1; first compound 2.53 µM): 0.505
- relative viability (EBC-1; first compound 8 µM): 0.221
- relative viability (UMC-11; first compound 0.08 µM): 0.691
- relative viability (UMC-11; first compound 0.253 µM): 0.761
- relative viability (UMC-11; first compound 0.8 µM): 0.804
- relative viability (UMC-11; first compound 2.53 µM): 0.575
- relative viability (UMC-11; first compound 8 µM): 0.604

SMILES: C=C1C(=O)O[C@@H](CCCCCCCC)[C@@H]1C(=O)O [C-75] + CS(=O)(=O)CCNCc1ccc(-c2ccc3ncnc(Nc4ccc(OCc5cccc(F)c5)c(Cl)c4)c3c2)o1 [Lapatinib] (partner 2 µM)
- relative viability (HCC-15; first compound 0.08 µM): 0.838
- relative viability (HCC-15; first compound 0.253 µM): 0.808
- relative viability (HCC-15; first compound 0.8 µM): 0.878
- relative viability (HCC-15; first compound 2.53 µM): 0.839
- relative viability (HCC-15; first compound 8 µM): 0.894
- relative viability (NCI-H1703; first compound 0.08 µM): 1.17
- relative viability (NCI-H1703; first compound 0.8 µM): 0.977
- relative viability (NCI-H1703; first compound 2.53 µM): 1.17
- relative viability (NCI-H1703; first compound 8 µM): 0.888
- relative viability (Calu-6; first compound 0.08 µM): 1.03
- relative viability (Calu-6; first compound 0.253 µM): 1.06
- relative viability (Calu-6; first compound 0.8 µM): 1.04
- relative viability (Calu-6; first compound 2.53 µM): 0.894
- relative viability (Calu-6; first compound 8 µM): 0.925
- relative viability (IA-LM; first compound 0.08 µM): 0.816
- relative viability (IA-LM; first compound 0.253 µM): 0.954
- relative viability (IA-LM; first compound 8 µM): 0.476
- relative viability (NCI-H1299; first compound 0.08 µM): 0.971
- relative viability (NCI-H1299; first compound 0.253 µM): 1
- relative viability (NCI-H1299; first compound 0.8 µM): 0.935
- relative viability (NCI-H1299; first compound 2.53 µM): 0.946
- relative viability (NCI-H1299; first compound 8 µM): 0.955
- relative viability (EBC-1; first compound 0.08 µM): 0.259
- relative viability (EBC-1; first compound 0.253 µM): 0.237
- relative viability (EBC-1; first compound 0.8 µM): 0.18
- relative viability (EBC-1; first compound 2.53 µM): 0.243
- relative viability (EBC-1; first compound 8 µM): 0.224
- relative viability (UMC-11; first compound 0.08 µM): 1.01
- relative viability (UMC-11; first compound 0.253 µM): 1.08
- relative viability (UMC-11; first compound 0.8 µM): 0.764
- relative viability (UMC-11; first compound 2.53 µM): 0.795
- relative viability (UMC-11; first compound 8 µM): 0.655
- relative viability (A549; first compound 0.08 µM): 1.01
- relative viability (A549; first compound 0.253 µM): 1.1
- relative viability (A549; first compound 0.8 µM): 0.798
- relative viability (A549; first compound 2.53 µM): 0.937
- relative viability (A549; first compound 8 µM): 0.89

SMILES: CC1(C)CCC(c2ccc(Cl)cc2)=C(CN2CCN(c3ccc(C(=O)NS(=O)(=O)c4ccc(N[C@H](CCN5CCOCC5)CSc5ccccc5)c(S(=O)(=O)C(F)(F)F)c4)cc3)CC2)C1 [Navitoclax] + CC(C)C[C@H](NC(=O)[C@H](Cc1ccccc1)NC(=O)c1cnccn1)B(O)O [Bortezomib] (partner 0.002 µM)
- relative viability (HCC-15; first compound 0.005 µM): 0.941
- relative viability (HCC-15; first compound 0.01581 µM): 0.995
- relative viability (HCC-15; first compound 0.05 µM): 0.85
- relative viability (HCC-15; first compound 0.1581 µM): 1.06
- relative viability (HCC-15; first compound 0.5 µM): 1
- relative viability (NCI-H1703; first compound 0.005 µM): 0.214
- relative viability (NCI-H1703; first compound 0.01581 µM): 0.275
- relative viability (NCI-H1703; first compound 0.05 µM): 0.313
- relative viability (NCI-H1703; first compound 0.1581 µM): 0.65
- relative viability (NCI-H1703; first compound 0.5 µM): 0.224
- relative viability (Calu-6; first compound 0.005 µM): 0.999
- relative viability (Calu-6; first compound 0.01581 µM): 1.16
- relative viability (Calu-6; first compound 0.05 µM): 1.13
- relative viability (Calu-6; first compound 0.1581 µM): 0.972
- relative viability (Calu-6; first compound 0.5 µM): 0.877
- relative viability (IA-LM; first compound 0.005 µM): 0.926
- relative viability (IA-LM; first compound 0.01581 µM): 0.818
- relative viability (IA-LM; first compound 0.05 µM): 0.824
- relative viability (IA-LM; first compound 0.1581 µM): 0.896
- relative viability (IA-LM; first compound 0.5 µM): 0.747
- relative viability (LCLC-103H; first compound 0.005 µM): 1.13
- relative viability (LCLC-103H; first compound 0.01581 µM): 1.25
- relative viability (LCLC-103H; first compound 0.05 µM): 1.18
- relative viability (LCLC-103H; first compound 0.1581 µM): 1.15
- relative viability (LCLC-103H; first compound 0.5 µM): 1.06
- relative viability (NCI-H1299; first compound 0.005 µM): 1.04
- relative viability (NCI-H1299; first compound 0.01581 µM): 1.12
- relative viability (NCI-H1299; first compound 0.05 µM): 1.01
- relative viability (NCI-H1299; first compound 0.1581 µM): 1.05
- relative viability (NCI-H1299; first compound 0.5 µM): 1.02
- relative viability (EBC-1; first compound 0.005 µM): 0.614
- relative viability (EBC-1; first compound 0.01581 µM): 0.649
- relative viability (EBC-1; first compound 0.05 µM): 0.575
- relative viability (EBC-1; first compound 0.1581 µM): 0.616
- relative viability (EBC-1; first compound 0.5 µM): 0.383
- relative viability (UMC-11; first compound 0.005 µM): 0.629
- relative viability (UMC-11; first compound 0.01581 µM): 0.8
- relative viability (UMC-11; first compound 0.1581 µM): 0.661
- relative viability (UMC-11; first compound 0.5 µM): 0.311
